The supplement of paper PMC13380429

Key:
Details in all cases: 72 h
Calu-3 [1] = assay: drug sensitivity score (DSS) for viability; higher = more toxic; extreme values may be limits of the assay
Vero E6 [2] = assay: as above
U2OS [3] = assay: as above
Caco-2 [4] = assay: as above
HepG2 [5] = assay: as above
Calu-3 [6] = assay: relative viability EC50 (midpoint between 100% and the lowest measured viability); higher = less toxic
Vero E6 [7] = assay: as above
U2OS [8] = assay: as above
Caco-2 [9] = assay: as above
HepG2 [10] = assay: as above
Calu-3 [11] = assay: cell viability relative to DMSO; higher = less toxic
Vero E6 [12] = assay: as above
U2OS [13] = assay: as above
Caco-2 [14] = assay: as above
HepG2 [15] = assay: as above

Structure (SMILES) | drug sensitivity score (Calu-3 [1]) | drug sensitivity score (Vero E6 [2]) | drug sensitivity score (U2OS [3]) | drug sensitivity score (Caco-2 [4]) | drug sensitivity score (HepG2 [5]) | relative viability EC50 (Calu-3 [6]) | relative viability EC50 (Vero E6 [7]) | relative viability EC50 (U2OS [8]) | relative viability EC50 (Caco-2 [9]) | relative viability EC50 (HepG2 [10]) | cell viability (Calu-3 [11]; 1 nM) | cell viability (Calu-3 [11]; 10 nM) | cell viability (Calu-3 [11]; 100 nM) | cell viability (Calu-3 [11]; 1000 nM) | cell viability (Calu-3 [11]; 10000 nM) | cell viability (Vero E6 [12]; 1 nM) | cell viability (Vero E6 [12]; 10 nM) | cell viability (Vero E6 [12]; 100 nM) | cell viability (Vero E6 [12]; 1000 nM) | cell viability (Vero E6 [12]; 10000 nM) | cell viability (U2OS [13]; 1 nM) | cell viability (U2OS [13]; 10 nM) | cell viability (U2OS [13]; 100 nM) | cell viability (U2OS [13]; 1000 nM) | cell viability (U2OS [13]; 10000 nM) | cell viability (Caco-2 [14]; 1 nM) | cell viability (Caco-2 [14]; 10 nM) | cell viability (Caco-2 [14]; 100 nM) | cell viability (Caco-2 [14]; 1000 nM) | cell viability (Caco-2 [14]; 10000 nM) | cell viability (HepG2 [15]; 1 nM) | cell viability (HepG2 [15]; 10 nM) | cell viability (HepG2 [15]; 100 nM) | cell viability (HepG2 [15]; 1000 nM) | cell viability (HepG2 [15]; 10000 nM)
CC(C)(C)c1ccc(S(=O)(=O)/C=C/C#N)cc1 [BAY-11-7085] | 3.1 | 7.1 | 7.4 | 4.8 | 8 | 2.69 µM | 2.35 µM | 2.26 µM | 2.1 µM | 2 µM | 105% | 103% | 96% | 97% | 49.8% | 92.7% | 95.9% | 91.8% | 90.3% | -0.3% | 101% | 99% | 102% | 89.1% | -0.4% | 101% | 82.2% | 83.6% | 91.8% | 37.8% | 96.7% | 100% | 98.7% | 85.2% | -0.4%
Cc1oc2nc3c(c(NC(=O)CN4CCCC4=O)c2c1C)CCCC3 [BCI-540] | 0 | 0 | 0 | 0 | 0 | > 10 µM | > 10 µM | > 10 µM | > 10 µM | > 10 µM | 90.2% | 101% | 94.4% | 104% | 107% | 93.2% | 93.8% | 99.5% | 92.5% | 110% | 100% | 99.8% | 97.8% | 105% | 101% | 94.4% | 99.2% | 99.8% | 103% | 101% | 88.7% | 100% | 98.5% | 98% | 94.3%
CC(C)(C)c1cc(O)c(C(C)(C)C)cc1O [BHQ] | 0 | 0 | 0 | 0.1 | 0 | > 10 µM | > 10 µM | > 10 µM | > 10 µM | > 10 µM | 109% | 94% | 93.1% | 97.9% | 108% | 98.3% | 96% | 103% | 96.6% | 91.8% | 101% | 97.2% | 103% | 99.1% | 99.8% | 101% | 96.9% | 102% | 95.7% | 88.9% | 102% | 95.8% | 92.4% | 97.9% | 95.5%
Cc1cc(C(=CNc2ccc(Cl)cc2)C(=O)Nc2ccc(Cl)cc2)on1 [CCMI] | 0 | 0 | 0 | 0 | 0 | > 10 µM | > 10 µM | > 10 µM | > 10 µM | > 10 µM | 104% | 100% | 105% | 98.9% | 105% | 98.7% | 101% | 98.7% | 96.6% | 98.1% | 103% | 93.3% | 97.8% | 102% | 99.4% | 98.4% | 93% | 104% | 88% | 100% | 95.6% | 96.3% | 96.9% | 107% | 95.7%
CCOC(=O)Nc1ccc2c(c1)N(C(=O)CN(CC)CC)c1ccccc1CC2 [CINPA-1] | 0 | 0 | 0 | 0 | 0 | > 10 µM | > 10 µM | > 10 µM | > 10 µM | > 10 µM | 109% | 99.6% | 99.5% | 91.9% | 107% | 95.2% | 106% | 96.6% | 100% | 91% | 105% | 102% | 99.5% | 97.6% | 99.1% | 103% | 96.1% | 100% | 100% | 92.2% | 97.7% | 106% | 99.1% | 96.7% | 93.7%
C=CC(=O)Nc1cccc(Nc2nc(Nc3ccc(Oc4ccnc(C(=O)NC)c4)cc3)ncc2F)c1 [CNX-774] | 0.4 | 5.6 | 6.2 | 5.5 | 5.2 | > 10 µM | 2.14 µM | 1.58 µM | 2.07 µM | 2.15 µM | 92.8% | 102% | 99.6% | 96.3% | 86.6% | 98.1% | 98.1% | 103% | 90.7% | 26.9% | 92.4% | 111% | 98.3% | 83.9% | 32.9% | 98.7% | 105% | 103% | 90.4% | 30% | 98.6% | 104% | 110% | 91.4% | 31.8%
CCCCNc1nc(N)c2[nH]c(=O)n(Cc3ccc(OCCN(C)C)nc3)c2n1 [DSR-6434] | 0 | 0 | 0 | 0 | 0 | > 10 µM | > 10 µM | > 10 µM | > 10 µM | > 10 µM | 90.4% | 104% | 95.2% | 89.6% | 101% | 97.6% | 99.1% | 98.8% | 93.6% | 96.3% | 96.9% | 97.9% | 99% | 101% | 97% | 93.3% | 98.6% | 92.7% | 100% | 95.9% | 103% | 102% | 91% | 94.4% | 97.1%
Cn1c(=O)c2c(ncn2CC(=O)Nc2ccc(-c3ccccc3)nn2)n(C)c1=O [ETC-159] | 0 | 0 | 0 | 0.5 | 1.9 | > 10 µM | > 10 µM | > 10 µM | > 10 µM | > 10 µM | 98.1% | 94% | 103% | 113% | 110% | 97.1% | 97.8% | 93.7% | 89.4% | 94.7% | 95.1% | 96.7% | 93.4% | 99.2% | 98.5% | 91.7% | 91.3% | 98.3% | 93.5% | 79.9% | 94% | 89.4% | 106% | 87.4% | 79.2%
O=C(N[C@H]1CN2CCC1CC2)c1cc2cccc(Cl)c2s1 [EVP-6124] | 0 | 0 | 0 | 0 | 0 | > 10 µM | > 10 µM | > 10 µM | > 10 µM | > 10 µM | 87.9% | 92% | 89.1% | 98.5% | 85.1% | 95.6% | 92.2% | 97.8% | 96% | 92.9% | 104% | 100% | 95% | 103% | 95.2% | 94.6% | 97.5% | 98.2% | 101% | 92.9% | 90.6% | 95% | 106% | 92.7% | 94.7%
O=C(O)CCc1ccc(NCc2cccc(Oc3ccccc3)c2)cc1 [GW-9508] | 0 | 0 | 0 | 0 | 0 | > 10 µM | > 10 µM | > 10 µM | > 10 µM | > 10 µM | 90.9% | 100% | 107% | 106% | 104% | 94.1% | 96.1% | 97.8% | 95.2% | 101% | 91.9% | 97% | 98.6% | 102% | 97.6% | 95.4% | 98.4% | 102% | 112% | 106% | 97.1% | 101% | 96.9% | 99.8% | 96%
C[C@@H]1C(=O)O[C@H]2C[C@@]34[C@H]5C[C@@H](C(C)(C)C)[C@]36[C@@H](OC(=O)[C@@H]6O)O[C@@]4(C(=O)O5)[C@]21O [Ginkgolide A] | 0 | 0 | 0 | 0 | 0 | > 10 µM | > 10 µM | > 10 µM | > 10 µM | > 10 µM | 104% | 103% | 96.4% | 106% | 105% | 104% | 95.1% | 98.9% | 97% | 103% | 105% | 98.4% | 102% | 100% | 104% | 101% | 97.3% | 98.2% | 93.4% | 95.6% | 101% | 88.5% | 100% | 92.6% | 94.3%
C[C@H](CCC(=O)O)[C@H]1CC[C@H]2[C@@H]3C[C@H](O)[C@@H]4C[C@H](O)CC[C@]4(C)[C@H]3CC[C@]12C [Hyodeoxycholic acid (HDCA)] | 0 | 0 | 0 | 0 | 0 | > 10 µM | > 10 µM | > 10 µM | > 10 µM | > 10 µM | 108% | 103% | 87.8% | 107% | 101% | 92.3% | 95.4% | 95.2% | 94.3% | 108% | 95.8% | 103% | 105% | 104% | 104% | 88.5% | 100% | 99.3% | 101% | 106% | 95.6% | 102% | 104% | 93.9% | 106%
